Values joined by “and” are separate entries in the source; they are usually repeats but may differ in a detail not shown here. Identical values can stand only once. Inconclusive results and toxic doses are left out.
System: CD2F1 mice, L1210 leukemia ip, survival T/C
Assay: NCI In Vivo Anticancer Drug Screen. Data for tumor model L1210 Leukemia (intraperitoneal) in CD2F1 (CDF1) mice
Conditions: higher = longer survival
Experimental: The antitumor activity of compounds was measured in mice bearing transplantable tumors. Survival or tumor size were measured and the results are expressed as the measurement made in the treated group (T) divided by the measurement made in the vehicle treated control group (C). The tumor model used in this assay is L1210 Leukemia (intraperitoneal) in CD2F1 (CDF1) mice

[1] = endpoint: mean survival time, dose: 100.0 mg/kg/injection, schedule: Q01DX009 (ip), vehicle: saline with Tween-80
[2] = endpoint: mean survival time, dose: 100.0 mg/kg/injection, schedule: Q04DX003 (ip), vehicle: saline with Tween-80
[3] = endpoint: mean survival time, dose: 200.0 mg/kg/injection, schedule: Q01DX009 (ip), vehicle: saline with Tween-80
[4] = endpoint: mean survival time, dose: 200.0 mg/kg/injection, schedule: Q04DX003 (ip), vehicle: saline with Tween-80
[5] = endpoint: mean survival time, dose: 400.0 mg/kg/injection, schedule: Q01DX009 (ip), vehicle: saline with Tween-80
[6] = endpoint: mean survival time, dose: 400.0 mg/kg/injection, schedule: Q04DX003 (ip), vehicle: saline with Tween-80

Nc1cccc2c1C(=O)c1ccccc1C2=O
T/C (endpoint: mean survival time, dose: 100.0 mg/kg/injection, schedule: Q04DX003 (ip), vehicle: other): 97 % of control
T/C (endpoint: mean survival time, dose: 200.0 mg/kg/injection, schedule: Q04DX003 (ip), vehicle: other): 92 % of control
T/C (endpoint: mean survival time, dose: 400.0 mg/kg/injection, schedule: Q04DX003 (ip), vehicle: other): 95 % of control

CC(C)c1ccc(P(c2ccc(C(C)C)cc2)c2ccc(C(C)C)cc2)cc1
T/C (endpoint: mean survival time, dose: 25.0 mg/kg/injection, schedule: Q04DX002 (ip), vehicle: saline with Tween-80): 103 % of control
T/C (endpoint: mean survival time, dose: 50.0 mg/kg/injection, schedule: Q04DX002 (ip), vehicle: saline with Tween-80): 88 % of control
T/C (endpoint: mean survival time, dose: 100.0 mg/kg/injection, schedule: Q04DX002 (ip), vehicle: saline with Tween-80): 88 % of control

CC(C)(C[NH-])C[NH-].[Cl][Pt+2][Cl]
T/C (endpoint: median survival time, dose: 0.2 mg/kg/injection, schedule: Q04DX003 (ip), vehicle: water): 118 % of control and 110 % of control and 111 % of control

CN(CCC#N)C(=O)Nc1ccccc1
T/C (endpoint: mean survival time, dose: 100.0 mg/kg/injection, schedule: Q04DX003 (ip), vehicle: saline + alcohol): 93 % of control
T/C (endpoint: mean survival time, dose: 200.0 mg/kg/injection, schedule: Q04DX003 (ip), vehicle: saline + alcohol): 98 % of control
T/C (endpoint: mean survival time, dose: 400.0 mg/kg/injection, schedule: Q04DX003 (ip), vehicle: saline + alcohol): 95 % of control

CC(C)C1(C(=O)NNC(=O)CCCc2ccc(N(CCCl)CCCl)cc2)OC2(O)CCCCCN2C1=O (stereo unspecified)
T/C (endpoint: mean survival time, dose: 6.25 mg/kg/injection, schedule: Q04DX003 (ip), vehicle: DMSO): 101 % of control
T/C (endpoint: mean survival time, dose: 12.5 mg/kg/injection, schedule: Q04DX003 (ip), vehicle: DMSO): 95 % of control
T/C (endpoint: mean survival time, dose: 25.0 mg/kg/injection, schedule: Q04DX003 (ip), vehicle: DMSO): 114 % of control

[Cl][Pt][Cl].[NH-]C(CC(N)=O)C(=O)O (stereo unspecified)
T/C (endpoint: median survival time, dose: 3.12 mg/kg/injection, schedule: Q04DX003 (ip), vehicle: water): 109 % of control
T/C (endpoint: median survival time, dose: 6.25 mg/kg/injection, schedule: Q04DX003 (ip), vehicle: water): 108 % of control
T/C (endpoint: median survival time, dose: 12.5 mg/kg/injection, schedule: Q04DX003 (ip), vehicle: water): 101 % of control
T/C (endpoint: median survival time, dose: 25.0 mg/kg/injection, schedule: Q04DX003 (ip), vehicle: water): 106 % of control
T/C (endpoint: median survival time, dose: 50.0 mg/kg/injection, schedule: Q04DX003 (ip), vehicle: water): 118 % of control
T/C (endpoint: median survival time, dose: 100.0 mg/kg/injection, schedule: Q04DX003 (ip), vehicle: water): 110 % of control

Cc1c(C)c(NC(=O)/C=C/C(=O)O)c(C)c(C)c1NC(=O)/C=C\C(=O)O
T/C (endpoint: mean survival time, dose: 100.0 mg/kg/injection, schedule: Q01DX001 (ip), vehicle: Klucel (hydroxypropylcellulose) (HPC)): 101 % of control
T/C (endpoint: mean survival time, dose: 200.0 mg/kg/injection, schedule: Q01DX001 (ip), vehicle: Klucel (hydroxypropylcellulose) (HPC)): 96 % of control
T/C (endpoint: mean survival time, dose: 400.0 mg/kg/injection, schedule: Q01DX001 (ip), vehicle: Klucel (hydroxypropylcellulose) (HPC)): 98 % of control

Cc1cc(O)c(C)c(C)c1N=Nc1ccccc1
T/C (endpoint: mean survival time, dose: 100.0 mg/kg/injection, schedule: Q01DX005 (ip), vehicle: saline with Tween-80): 97 % of control
T/C (endpoint: mean survival time, dose: 200.0 mg/kg/injection, schedule: Q01DX005 (ip), vehicle: saline with Tween-80): 97 % of control
T/C (endpoint: mean survival time, dose: 400.0 mg/kg/injection, schedule: Q01DX005 (ip), vehicle: saline with Tween-80): 97 % of control

c1ccc(-c2nnc(-c3ccccn3)nn2)nc1
T/C (endpoint: mean survival time, dose: 12.5 mg/kg/injection, schedule: Q01DX009 (ip), vehicle: Klucel (hydroxypropylcellulose) (HPC)): 103 % of control
T/C (endpoint: mean survival time, dose: 25.0 mg/kg/injection, schedule: Q01DX009 (ip), vehicle: Klucel (hydroxypropylcellulose) (HPC)): 101 % of control
T/C (endpoint: mean survival time, dose: 50.0 mg/kg/injection, schedule: Q01DX009 (ip), vehicle: Klucel (hydroxypropylcellulose) (HPC)): 106 % of control
T/C (endpoint: mean survival time, dose: 100.0 mg/kg/injection, schedule: Q01DX009 (ip), vehicle: Klucel (hydroxypropylcellulose) (HPC)): 101 % of control
T/C (endpoint: mean survival time, dose: 200.0 mg/kg/injection, schedule: Q01DX009 (ip), vehicle: Klucel (hydroxypropylcellulose) (HPC)): 95 % of control
T/C (endpoint: mean survival time, dose: 400.0 mg/kg/injection, schedule: Q01DX009 (ip), vehicle: Klucel (hydroxypropylcellulose) (HPC)): 101 % of control

CS(=O)(=O)C(Cl)(Cl)S(C)(=O)=O
T/C (endpoint: mean survival time, dose: 6.25 mg/kg/injection, schedule: Q04DX003 (ip), vehicle: saline with Tween-80): 95 % of control
T/C (endpoint: mean survival time, dose: 12.5 mg/kg/injection, schedule: Q04DX003 (ip), vehicle: saline with Tween-80): 91 % of control
T/C (endpoint: mean survival time, dose: 25.0 mg/kg/injection, schedule: Q04DX003 (ip), vehicle: saline with Tween-80): 91 % of control

CC[C@@]1(OP(=O)(O)O)C(=O)OCc2c1cc1n(c2=O)Cc2cc3ccccc3nc2-1
T/C (endpoint: median survival time, dose: 5.5 mg/kg/injection, schedule: Q04DX002 (ip), vehicle: water): 111 % of control and 112 % of control
T/C (endpoint: median survival time, dose: 8.25 mg/kg/injection, schedule: Q04HX004 (iv), vehicle: water): 154 % of control
T/C (endpoint: median survival time, dose: 11.0 mg/kg/injection, schedule: Q04DX002 (ip), vehicle: water): 119 % of control and 104 % of control
T/C (endpoint: median survival time, dose: 16.5 mg/kg/injection, schedule: Q04HX004 (iv), vehicle: water): 158 % of control and 180 % of control
T/C (endpoint: median survival time, dose: 33.0 mg/kg/injection, schedule: Q04HX004 (iv), vehicle: water): 177 % of control and 221 % of control
T/C (endpoint: median survival time, dose: 44.0 mg/kg/injection, schedule: Q04DX002 (ip), vehicle: water): 158 % of control and 192 % of control
T/C (endpoint: median survival time, dose: 44.0 mg/kg/injection, schedule: Q04HX004 (iv), vehicle: water): 207 % of control

CC(=O)Nc1c(N)nc(Nc2nc3ccccc3[nH]2)[nH]c1=O
T/C [1]: 93 % of control
T/C [2]: 97 % of control
T/C [3]: 95 % of control
T/C [4]: 96 % of control
T/C [5]: 93 % of control
T/C [6]: 87 % of control

O=P(OCc1ccccc1)(N(CCCl)CCCl)N1CCCC1 (stereo unspecified)
T/C (endpoint: mean survival time, dose: 128.0 mg/kg/injection, schedule: Q01DX Z (ip), vehicle: saline): 101 % of control

O=C1C=Cc2ccccc2C1=O
T/C (endpoint: mean survival time, dose: 0.63 mg/kg/injection, schedule: Q01DX009 (ip), vehicle: saline): 98 % of control
T/C (endpoint: mean survival time, dose: 1.0 mg/kg/injection, schedule: Q01DX009 (ip), vehicle: saline): 105 % of control
T/C (endpoint: mean survival time, dose: 1.25 mg/kg/injection, schedule: Q01DX009 (ip), vehicle: saline): 104 % of control
T/C (endpoint: mean survival time, dose: 2.0 mg/kg/injection, schedule: Q01DX009 (ip), vehicle: saline): 98 % of control
T/C (endpoint: mean survival time, dose: 2.5 mg/kg/injection, schedule: Q01DX009 (ip), vehicle: saline with Tween-80): 110 % of control
T/C (endpoint: mean survival time, dose: 2.5 mg/kg/injection, schedule: Q01DX009 (ip), vehicle: saline): 98 % of control
T/C (endpoint: mean survival time, dose: 4.0 mg/kg/injection, schedule: Q01DX009 (ip), vehicle: saline): 88 % of control

CN(C)c1ccc(/C=C(\C#N)c2ccc([N+](=O)[O-])cc2)c(Cl)c1
T/C [1]: 97 % of control
T/C [3]: 97 % of control
T/C [5]: 92 % of control

O=C(CCl)C(c1ccc([N+](=O)[O-])cc1)c1ccc([N+](=O)[O-])cc1
T/C [1]: 98 % of control
T/C [2]: 100 % of control
T/C [3]: 98 % of control
T/C [4]: 103 % of control
T/C [5]: 98 % of control
T/C [6]: 108 % of control

Cc1cccc(NC(=S)N(C)C)c1
T/C [2]: 104 % of control
T/C [4]: 102 % of control
T/C [6]: 94 % of control

C#CCCCCCCCCCCC1(c2ccccc2)OCCO1
T/C (endpoint: mean survival time, dose: 100.0 mg/kg/injection, schedule: Q04DX003 (ip), vehicle: Klucel (hydroxypropylcellulose) (HPC)): 94 % of control
T/C (endpoint: mean survival time, dose: 200.0 mg/kg/injection, schedule: Q04DX003 (ip), vehicle: Klucel (hydroxypropylcellulose) (HPC)): 97 % of control
T/C (endpoint: mean survival time, dose: 400.0 mg/kg/injection, schedule: Q04DX003 (ip), vehicle: Klucel (hydroxypropylcellulose) (HPC)): 95 % of control

CCCCCCCCCCC(CCCCCCCCCC)Cc1ccccc1
T/C (endpoint: mean survival time, dose: 100.0 mg/kg/injection, schedule: Q01DX001 (ip), vehicle: saline): 98 % of control
T/C (endpoint: mean survival time, dose: 200.0 mg/kg/injection, schedule: Q01DX001 (ip), vehicle: saline): 98 % of control
T/C (endpoint: mean survival time, dose: 400.0 mg/kg/injection, schedule: Q01DX001 (ip), vehicle: saline): 93 % of control

CC(=O)N1NC2C(=O)N(C3CCCCC3)CC2C1c1ccccc1 (stereo unspecified)
T/C [1]: 93 % of control
T/C [3]: 100 % of control
T/C [5]: 93 % of control

CC(C)CCOC(=O)CN(CC(=O)OCCC(C)C)c1ccccc1
T/C [1]: 89 % of control
T/C [2]: 95 % of control
T/C [3]: 91 % of control
T/C [4]: 97 % of control
T/C [5]: 97 % of control
T/C [6]: 105 % of control

O=[N+]([O-])C(Br)C(Br)c1ccccc1 (stereo unspecified)
T/C (endpoint: mean survival time, dose: 6.25 mg/kg/injection, schedule: Q01DX001 (ip), vehicle: Klucel (hydroxypropylcellulose) (HPC)): 96 % of control
T/C (endpoint: mean survival time, dose: 12.5 mg/kg/injection, schedule: Q01DX001 (ip), vehicle: Klucel (hydroxypropylcellulose) (HPC)): 97 % of control
T/C (endpoint: mean survival time, dose: 25.0 mg/kg/injection, schedule: Q01DX001 (ip), vehicle: Klucel (hydroxypropylcellulose) (HPC)): 91 % of control
T/C (endpoint: mean survival time, dose: 50.0 mg/kg/injection, schedule: Q01DX001 (ip), vehicle: Klucel (hydroxypropylcellulose) (HPC)): 102 % of control

Source: PubChem BioAssay AID256 (DTP/NCI, 2004)
